# In ChEMBL document CHEMBL1201862, “PubChem BioAssay data set” (2004):
#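 All cell lines were grown in 96-well plates and treated with compound for 48 hours. At the GI50, growth is halved.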 Calls of active or inactive are those of the source. No stated cut-off is given here; in the data, active = GI50 up to about 1.1 µM and inactive = higher.
# What was measured:
# Experiment in all cases: DTP human tumour cell line panel, 48 h
# SNB-19 = system: SNB-19
# MDA-MB-231 = system: MDA-MB-231
# NCI-H522 = system: NCI-H522
# M19-MEL = system: M19-MEL
# NCI-H23 = system: NCI-H23
# SR = system: SR
# HCC 2998 = system: HCC 2998
# SK-OV-3 = system: SK-OV-3
# IGROV-1 = system: IGROV-1
# COLO 205 = system: COLO 205
# 786-0 = system: 786-0
# MOLT-4 = system: MOLT-4
# Hs-578T = system: Hs-578T
# UACC-62 = system: UACC-62
# SF-539 = system: SF-539
# HCT-116 = system: HCT-116
# NCI-H226 = system: NCI-H226
# RPMI-8226 = system: RPMI-8226
# BT-549 = system: BT-549
# K562 = system: K562
Structure (SMILES),GI50 (SNB-19),GI50 (MDA-MB-231),GI50 (NCI-H522),GI50 (M19-MEL),GI50 (NCI-H23),GI50 (SR),GI50 (HCC 2998),GI50 (SK-OV-3),GI50 (IGROV-1),GI50 (COLO 205),GI50 (786-0),GI50 (MOLT-4),GI50 (Hs-578T),GI50 (UACC-62),GI50 (SF-539),GI50 (HCT-116),GI50 (NCI-H226),GI50 (RPMI-8226),GI50 (BT-549),GI50 (K562)
COC(=O)[C@@H]1c2cc3c(c(O)c2[C@@H](OC2OC(C)C(OC)C(C)(OC)C2OC)C[C@]1(C)O)C(=O)c1c(O)cc2c(c1C3=O)O[C@H]1O[C@]2(C)[C@H](O)[C@@H](N(C)C)[C@@H]1O (some centres not stated),0.00502 µM (active),0.0288 µM (active),0.0138 µM (active),0.000973 µM (active),0.00581 µM (active),0.00294 µM (active),0.00433 µM (active),0.0426 µM (active),0.0101 µM (active),0.00629 µM (active),0.00635 µM (active),0.0146 µM (active),0.0203 µM (active),0.00386 µM (active),0.0246 µM (active),0.00189 µM (active),0.00427 µM (active),0.00243 µM (active),0.0197 µM (active),0.0155 µM (active)
CCC12CCCN(Cc3ccccc3)C1c1c(n(C)c3ccccc13)CC2 (configuration not stated),> 253 µM (inactive),,61.1 µM (inactive),170 µM (inactive),111 µM (inactive),108 µM (inactive),151 µM (inactive),> 253 µM (inactive),159 µM (inactive),164 µM (inactive),> 253 µM (inactive),101 µM (inactive),,230 µM (inactive),> 253 µM (inactive),141 µM (inactive),> 253 µM (inactive),92.7 µM (inactive),,163 µM (inactive)
C=C(Br)N(CC)CC,> 100 µM (inactive),,> 100 µM (inactive),> 100 µM (inactive),> 100 µM (inactive),> 100 µM (inactive),> 100 µM (inactive),> 100 µM (inactive),> 100 µM (inactive),> 100 µM (inactive),> 100 µM (inactive),> 100 µM (inactive),,> 100 µM (inactive),> 100 µM (inactive),> 100 µM (inactive),> 100 µM (inactive),> 100 µM (inactive),,> 100 µM (inactive)
CC(=O)[O-].[Zn+].c1ccc(/C(=N\Nc2ccccn2)c2ccccn2)cc1,1.06 µM (active),,0.165 µM (active),0.394 µM (active),0.0155 µM (active),,0.71 µM (active),0.0615 µM (active),0.0374 µM (active),0.00028 µM (active),0.137 µM (active),0.000773 µM (active),0.931 µM (active),0.182 µM (active),0.337 µM (active),0.005 µM (active),0.0929 µM (active),0.01 µM (active),,0.00535 µM (active)
c1ccc(NC[Si]23OCCN(CCO2)CCO3)cc1,> 100 µM (inactive),,> 100 µM (inactive),> 100 µM (inactive),> 100 µM (inactive),> 100 µM (inactive),> 100 µM (inactive),> 100 µM (inactive),> 100 µM (inactive),> 100 µM (inactive),> 100 µM (inactive),> 100 µM (inactive),,> 100 µM (inactive),> 100 µM (inactive),> 100 µM (inactive),> 100 µM (inactive),> 100 µM (inactive),,> 100 µM (inactive)
CN1CCN(Cc2nc3cccc4c3c([n+]2[O-])-c2ccccc2-4)CC1,16.9 µM (inactive),15.8 µM (inactive),14.3 µM (inactive),34 µM (inactive),26.8 µM (inactive),4.19 µM (inactive),53 µM (inactive),59.3 µM (inactive),32.5 µM (inactive),16.9 µM (inactive),14.4 µM (inactive),12.4 µM (inactive),34.9 µM (inactive),24.9 µM (inactive),25.4 µM (inactive),4.41 µM (inactive),26.8 µM (inactive),20.7 µM (inactive),39 µM (inactive),29.6 µM (inactive)
CC(=O)N1C/C(=C\c2ccccc2)C(=O)/C(=C/c2ccccc2)C1,16.8 µM (inactive),,12.3 µM (inactive),3.34 µM (inactive),19 µM (inactive),2.99 µM (inactive),10.9 µM (inactive),22.5 µM (inactive),17.6 µM (inactive),17.6 µM (inactive),15.6 µM (inactive),4.2 µM (inactive),,14.4 µM (inactive),19.3 µM (inactive),2.51 µM (inactive),17.4 µM (inactive),0.415 µM (active),,2.89 µM (inactive)
CN(C)C(=S)N=C(Nc1ccccc1)Nc1ccccc1,> 100 µM (inactive),,> 100 µM (inactive),> 100 µM (inactive),> 100 µM (inactive),> 100 µM (inactive),> 100 µM (inactive),> 100 µM (inactive),> 100 µM (inactive),> 100 µM (inactive),> 100 µM (inactive),> 100 µM (inactive),,> 100 µM (inactive),> 100 µM (inactive),> 100 µM (inactive),> 100 µM (inactive),> 100 µM (inactive),,> 100 µM (inactive)
Cc1c2cc[n+](C)cc2c(C)c2c1[nH]c1ccc(Cl)cc12,0.274 µM (active),4.41 µM (inactive),0.617 µM (active),0.993 µM (active),0.843 µM (active),5.32 µM (inactive),1.63 µM (inactive),1.2 µM (inactive),1.02 µM (active),0.494 µM (active),0.232 µM (active),2.31 µM (inactive),0.295 µM (active),3.98 µM (inactive),0.401 µM (active),0.881 µM (active),0.272 µM (active),25 µM (inactive),1.26 µM (inactive),2.21 µM (inactive)
